In US7265148B2, “Substituted pyrrole-indoles” (Wyeth, priority 2003, dated 2007):
pIC50: −log10 of the molar value.

Experiments:
[1] = biological target: T1, recombinant human plasminogen activator inhibitor-1 (PAI-1) (Homo sapiens, UniProt P05121); assay: Primary screen for the PAI-1 inhibition (chromogenic tPA activity); type: biochemical; conditions: pH 6.6; for inhibition at 10 µM: 10 μM test compound; for inhibition at 25 µM: 25 μM test compound
T1 construct: purchased Molecular Innovations, Royal Oak, Mich
T1 sequence (P05121 24-402): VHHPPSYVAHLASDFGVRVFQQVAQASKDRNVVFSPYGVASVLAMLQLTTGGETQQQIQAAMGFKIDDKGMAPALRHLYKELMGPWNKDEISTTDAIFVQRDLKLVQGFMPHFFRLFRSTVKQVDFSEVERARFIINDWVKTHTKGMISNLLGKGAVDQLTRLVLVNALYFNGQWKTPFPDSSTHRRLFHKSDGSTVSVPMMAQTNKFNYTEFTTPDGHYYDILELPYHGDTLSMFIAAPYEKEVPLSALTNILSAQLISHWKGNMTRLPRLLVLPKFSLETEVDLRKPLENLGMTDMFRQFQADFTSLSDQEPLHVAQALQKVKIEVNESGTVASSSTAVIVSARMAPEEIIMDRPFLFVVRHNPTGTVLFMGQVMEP
Procedure: Test compounds are dissolved in DMSO at a final concentration of 10 mM, then diluted 100× in physiologic buffer. The inhibitory assay is initiated by the addition of the test compound (1-100 μM final concentration, maximun DMSO concentration of 0.2%) in a pH 6.6 buffer containing 140 nM recombinant human plasminogen activator inhibitor-1 (PAI-1; Molecular Innovations, Royal Oak, Mich.). Following a 1 hour incubation at room temperature, 70 nM of recombinant human tissue plasminogen activator (tPA) is added, and the combination of the test compound, PAI-1 and tPA is incubated for an additional 30 minutes. Following the second incubation, Spectrozyme-tPA (American Diagnostica, Greenwich, Conn.), a chromogenic substrate for tPA, is added and absorbance read at 405 nm at 0 and 60 minutes. Relative PAI-1 inhibition is equal to the residual tPA activity in the presence of the test compound and PAI-1. Control treatments include the complete inhibition of tPA by PAI-1 at the molar ratio employed (2:1), and the absence of any effect of the test compound on tPA alone.

[2] = biological target: human PAI-1 (Homo sapiens, UniProt P05121); assay: Assay for determining IC50 of inhibition of PAI-1 (tPA-coated plate, antibody detection); type: binding; conditions: active PAI-1 bound to tPA-coated plate; pH 7.5
human PAI-1, sequence (P05121 24-402): as above
Procedure: This assay is based upon the non-SDS dissociable interaction between tPA and active PAI-1. Assay plates are initially coated with human tPA (10 μg/ml). Test compounds of the present invention are dissolved in DMSO at 10 mM, then diluted with physiologic buffer (pH 7.5) to a final concentration of 1-50 μM. Test compounds are incubated with human PAI-1 (50 ng/ml) for 15 minutes at room temperature. The tPA-coated plate is washed with a solution of 0.05% Tween 20 and 0.1% BSA, then the plate is blocked with a solution of 3% BSA. An aliquot of the substituted pyrrole-indole/PAI-1 solution is then added to the tPA-coated plate, incubated at room temperature for 1 hour, and washed. Active PAL-1 bound to the plate is assessed by adding an aliquot of a 1:1000 dilution of the 33B8 monoclonal antibody against human PAI-1, and incubating the plate at room temperature for 1 hour (Molecular Innovations, Royal Oak, Mich.). […] The plate is incubated 45 minutes at room temperature, and color development is determined at OD405 nm. The quantitation of active PAI-1 bound to tPA at varying concentrations of the test compound is used to determine the IC50. Results are analyzed using a logarithmic best-fit equation. The assay sensitivity is 5 ng/ml of human PAI-1 as determined from a standard curve ranging from 0-100 ng/ml.

Compound | inhibition at 10 µM [1] [%] | inhibition at 25 µM [1] [%] | pIC50 [2]
Cn1c(C(=O)N[C@@H](Cc2ccccc2)C(=O)O)c(-c2ccccc2)c2cc(-n3cccc3)ccc21 [Example 2, N-{[1-methyl-3-phenyl-5-(1H-pyrrol-1-yl)-1H-indol-2-yl]carbonyl}-L-phenylalanine] | 4 | 61 | 
O=C(N[C@@H](Cc1ccccc1)C(=O)O)c1c(-c2ccccc2)c2cc(-n3cccc3)ccc2n1Cc1ccccc1 [Example 3, N-{[1-benzyl-3-phenyl-5-(1H-pyrrol-1-yl)-1H-indol-2-yl]carbonyl}-L-phenylalanine] | 15 | 52 | 
CC(C)C[C@H](NC(=O)c1c(-c2ccccc2)c2cc(-n3cccc3)ccc2n1Cc1ccccc1)C(=O)O [Example 4, N-{[1-benzyl-3-phenyl-5-(1H-pyrrol-1-yl)-1H-indol-2-yl]carbonyl}-L-leucine] | 18 | 90 | 
Cc1ccc(C)n1-c1ccc2c(c1)c(-c1ccccc1)c(C(=O)O)n2Cc1ccccc1 [Example 5, 1-benzyl-5-(2,5-dimethyl-1H-pyrrol-1-yl)-3-phenyl-1H-indole-2-carboxylic acid] | 23 | 83 | 
Cc1ccc(C)n1-c1ccc2c(c1)c(-c1ccccc1)c(C(=O)N[C@@H](CC(C)C)C(=O)O)n2Cc1ccccc1 [Example 6, N-{[1-benzyl-5-(2,5-dimethyl-1H-pyrrol-1-yl)-3-phenyl-1H-indol-2-yl]carbonyl}-L-leucine] | 76 | 79 | 4.89
O=C(O)c1[nH]c2ccc(-n3cccc3)cc2c1-c1ccccc1 [Example 9, 3-phenyl-5-(1H-pyrrol-1-yl)-1H-indole-2-carboxylic acid] | 19 | 47 | 
CC(C)(C)c1ccc(-c2c(C(=O)O)n(Cc3ccccc3)c3ccc(-n4cccc4)cc23)cc1 [Example 10, 1-benzyl-3-(4-tert-butylphenyl)-5-(1H-pyrrol-1-yl)-1H-indole-2-carboxylic acid] | 49 | 90 | 
O=C(N[C@@H](Cc1ccccc1)C(=O)O)c1[nH]c2ccc(-n3cccc3)cc2c1-c1ccccc1 [Example 12, N-{[3-phenyl-5-(1H-pyrrol-1-yl)-1H-indol-2-yl]carbonyl}-L-phenylalanine] | 39 | 51 | 

The remaining lines, values ahead:

inhibition at 10 µM [1] [%] | inhibition at 25 µM [1] [%] | pIC50 [2] | Compound
12 | 69 |  | O=C(O)c1c(-c2ccccc2)c2cc(-n3cccc3)ccc2n1Cc1ccccc1 [Example 1, 1-benzyl-3-phenyl-5-(1H-pyrrol-1-yl)-1H-indole-2-carboxylic acid]
56 | 90 |  | O=C(O)c1c(-c2ccccc2)c2cc(-n3cccc3)ccc2n1Cc1ccc(-c2ccccc2)cc1 [Example 7, 1-(1,1′-biphenyl-4-ylmethyl)-3-phenyl-5-(1H-pyrrol-1-yl)-1H-indole-2-carboxylic acid]
60 | 79 |  | O=C(O)c1c(-c2ccccc2)c2cc(-n3ccc4ccccc43)ccc2n1Cc1ccc(-c2ccccc2)cc1 [Example 8, 1′-(1,1′-biphenyl-4-ylmethyl)-3′-phenyl-1′H-1,5′-biindole-2′-carboxylic acid]
66 | 99 |  | CC(C)(C)c1ccc(-c2c(C(=O)O)n(Cc3ccccc3)c3ccc(-n4ccc5ccccc54)cc23)cc1 [Example 11, 1′-benzyl-3′-(4-tert-butylphenyl)-1′H-1,5′-biindole-2′-carboxylic acid]
